Reference: patent publication US5916873A, “Teicoplanin derivatives” (Eli Lilly and Company, priority 1998, dated 1999)
Values after ≈ are worked out from the molar mass of the structure shown.

Legend:
E. f. 180-1 = experiment: standard broth micro-dilution MIC; assay type: cell-based; settings: Table 2B; strain 180-1
Description: (§1) The antibacterial efficacy of the present teicoplanin derivatives is illustrated by the following tables. The minimal inhibitory concentrations (MICs) were determined using a standard broth micro-dilution assay.

E. f. 180 = experiment: standard broth micro-dilution MIC; assay type: cell-based; settings: Table 2B; strain 180
Description: as §1

E. f. 2041 = experiment: standard broth micro-dilution MIC; assay type: cell-based; settings: Table 2B; strain 2041
Description: as §1

E. f. 276 = experiment: standard broth micro-dilution MIC; assay type: cell-based; settings: Table 2C; strain 276
Description: as §1

E. gall. 245 = experiment: standard broth micro-dilution MIC; assay type: cell-based; settings: Table 2C; strain 245
Description: as §1

EC14 = experiment: standard broth micro-dilution MIC; assay type: cell-based; settings: Table 2C; strain EC14
Description: as §1

H. influ RD = experiment: standard broth micro-dilution MIC; assay type: cell-based; settings: Table 2C; strain RD
Description: as §1

M. cat M12 = experiment: standard broth micro-dilution MIC; assay type: cell-based; settings: Table 2C; strain M12
Description: as §1

S. aureus 446 = experiment: standard broth micro-dilution MIC; assay type: cell-based; settings: Table 2A; strain 446
Description: as §1

S. aureus 447 = experiment: standard broth micro-dilution MIC; assay type: cell-based; settings: Table 2A; strain 447
Description: as §1

S. aureus 489 = experiment: standard broth micro-dilution MIC; assay type: cell-based; settings: Table 2A; strain 489
Description: as §1

S. aureus 491 = experiment: standard broth micro-dilution MIC; assay type: cell-based; settings: Table 2A; strain 491
Description: as §1

S. aureus S13E = experiment: standard broth micro-dilution MIC; assay type: cell-based; settings: Table 2A; strain S13E
Description: as §1

S. aureus SA1199B = experiment: standard broth micro-dilution MIC; assay type: cell-based; settings: Table 2B; strain SA1199B
Description: as §1

S. aureus SA1199R = experiment: standard broth micro-dilution MIC; assay type: cell-based; settings: Table 2B; strain SA1199R
Description: as §1

S. aureus SA1199 = experiment: standard broth micro-dilution MIC; assay type: cell-based; settings: Table 2A; strain SA1199
Description: as §1

S. aureus X400 = experiment: standard broth micro-dilution MIC; assay type: cell-based; settings: Table 2A; strain X400
Description: as §1

S. aureus X778 = experiment: standard broth micro-dilution MIC; assay type: cell-based; settings: Table 2A; strain X778
Description: as §1

S. epi 270 = experiment: standard broth micro-dilution MIC; assay type: cell-based; settings: Table 2B; strain 270
Description: as §1

S. h. 105 = experiment: standard broth micro-dilution MIC; assay type: cell-based; settings: Table 2B; strain 105
Description: as §1

S. h. 415 = experiment: standard broth micro-dilution MIC; assay type: cell-based; settings: Table 2B; strain 415
Description: as §1

St. pneumo P1 = experiment: standard broth micro-dilution MIC; assay type: cell-based; settings: Table 2C; strain P1
Description: as §1

St. pyro C203 = experiment: standard broth micro-dilution MIC; assay type: cell-based; settings: Table 2C; strain C203
Description: as §1

H. influR D/BL+ = assay type: cell-based, H. influ; settings: Table 2C; strain RD/BL+
Description: as §1

[1] = tested on: vancomycin-resistant enterococci; experiment: mean geometric MIC, vancomycin-resistant enterococci, broth micro-dilution; assay type: cell-based, Enterococcus faecium and Enterococcus faecalis; settings: Table 3, representative vancomycin-resistant enterococci
Description: as §1

[2] = tested on: vancomycin-sensitive enterococci; experiment: mean geometric MIC, vancomycin-sensitive enterococci, broth micro-dilution; assay type: cell-based, Enterococcus faecium and Enterococcus faecalis; settings: Table 3, representative vancomycin-sensitive enterococci
Description: as §1

| Compound | MIC E. f. 180-1 (E. f. 180-1) | MIC E. f. 180 (E. f. 180) | MIC E. f. 2041 (E. f. 2041) | MIC E. f. 276 (E. f. 276) | MIC E. gall. 245 (E. gall. 245) | MIC EC14 (EC14) [µg/mL] | MIC H. influ RD (H. influ RD) [µg/mL] | MIC M. cat M12 (M. cat M12) | MIC S. aureus 446 (S. aureus 446) | MIC S. aureus 447 (S. aureus 447) | MIC S. aureus 489 (S. aureus 489) | MIC S. aureus 491 (S. aureus 491) | MIC S. aureus S13E (S. aureus S13E) | MIC S. aureus SA1199B (S. aureus SA1199B) | MIC S. aureus SA1199R (S. aureus SA1199R) | MIC S. aureus SA1199 (S. aureus SA1199) | MIC S. aureus X400 (S. aureus X400) | MIC S. aureus X778 (S. aureus X778) | MIC S. epi 270 (S. epi 270) | MIC S. h. 105 (S. h. 105) | further results |
| --- | --- | --- | --- | --- | --- | --- | --- | --- | --- | --- | --- | --- | --- | --- | --- | --- | --- | --- | --- | --- | --- |
| CC(=O)NC1C(OC2c3ccc(c(Cl)c3)Oc3cc4cc(c3OC3OC(CO)C(O)C(O)C3NCc3ccc(-c5ccccc5)cc3)Oc3ccc(cc3Cl)CC3NC(=O)C(NCc5ccc(-c6ccccc6)cc5)c5ccc(O)c(c5)Oc5cc(O)cc(c5)C(NC3=O)C(=O)NC4C(=O)NC3C(=O)NC2C(=O)NC(C(=O)O)c2cc(O)cc(OC4OC(CO)C(O)C(O)C4O)c2-c2cc3ccc2O)OC(CO)C(O)C1O.O=C(O)C(F)(F)F (stereo not drawn) [Example 1, Deacyl Teicoplanin, Bis(4-phenylbenzyl) Derivative] | ≤ .06 µg/mL | ≤ 06 µg/mL | ≤ .06 µg/mL | ≤ .06 µg/mL | ≤ .06 µg/mL | > 64 | 64 | ≤ .06 µg/mL | 0.5 µg/mL | 2 µg/mL | 0.125 µg/mL | 0.25 µg/mL | 0.25 µg/mL | 0.5 µg/mL | ≤ .06 µg/mL | 0.25 µg/mL | 0.25 µg/mL | 0.25 µg/mL | 1 µg/mL | ≤ .06 µg/mL | MIC S. h. 415 (S. h. 415): 4 µg/mL; MIC St. pneumo P1 (St. pneumo P1): ≤ .06 µg/mL; MIC St. pyro C203 (St. pyro C203): ≤ .06 µg/mL; MIC H. influR D/BL+ (H. influR D/BL+): 64 µg/mL |
| CC(=O)NC1C(OC2c3ccc(c(Cl)c3)Oc3cc4cc(c3OC3OC(CO)C(O)C(O)C3N)Oc3ccc(cc3Cl)CC3NC(=O)C(NCc5ccc(-c6ccccc6)cc5)c5ccc(O)c(c5)Oc5cc(O)cc(c5)C(NC3=O)C(=O)NC4C(=O)NC3C(=O)NC2C(=O)NC(C(=O)O)c2cc(O)cc(OC4OC(CO)C(O)C(O)C4O)c2-c2cc3ccc2O)OC(CO)C(O)C1O (stereo not drawn) [Example 2, Deacyl Teicoplanin, N^15-(4-phenylbenzyl) Derivative] | 0.25 µg/mL (≈ 0.132 µM) | 32 µg/mL (≈ 16.9 µM) | ≤ .03 µg/mL | ≤ .03 µg/mL | 0.25 µg/mL (≈ 0.132 µM) | > 32 | 16 (≈ 8.46 µM) | 0.25 µg/mL (≈ 0.132 µM) | ≤ .03 µg/mL | 0.25 µg/mL (≈ 0.132 µM) | ≤ .03 µg/mL | ≤ .03 µg/mL | ≤ .03 µg/mL | ≤ .03 µg/mL | ≤ .03 µg/mL | ≤ .03 µg/mL | ≤ .03 µg/mL | 0.125 µg/mL (≈ 0.0661 µM) | 0.25 µg/mL (≈ 0.132 µM) | 0.25 µg/mL (≈ 0.132 µM) | MIC S. h. 415 (S. h. 415): 8 µg/mL (≈ 4.23 µM); MIC St. pneumo P1 (St. pneumo P1): ≤ .03 µg/mL; MIC St. pyro C203 (St. pyro C203): ≤ .03 µg/mL; MIC H. influR D/BL+ (H. influR D/BL+): 32 µg/mL (≈ 16.9 µM); Resist. MIC [1]: > 32 µg/mL; Sens. MIC [2]: 2.6 µg/mL |
| CCCCc1ccc(CNC2C(=O)NC3Cc4ccc(c(Cl)c4)Oc4cc5cc(c4OC4OC(CO)C(O)C(O)C4NCc4ccc(CCCC)cc4)Oc4ccc(cc4Cl)C(OC4OC(CO)C(O)C(O)C4NC(C)=O)C4NC(=O)C(NC(=O)C5NC(=O)C(NC3=O)c3cc(O)cc(c3)Oc3cc2ccc3O)c2ccc(O)c(c2)-c2c(OC3OC(CO)C(O)C(O)C3O)cc(O)cc2C(C(=O)O)NC4=O)cc1 (stereo not drawn) [Example 5] | ≤ .06 µg/mL | ≤ .06 µg/mL | ≤ .06 µg/mL | ≤ .06 µg/mL | ≤ .06 µg/mL | > 64 | 64 (≈ 31.7 µM) | ≤ .06 µg/mL | 0.5 µg/mL (≈ 0.248 µM) | 0.5 µg/mL (≈ 0.248 µM) | 0.5 µg/mL (≈ 0.248 µM) | 0.25 µg/mL (≈ 0.124 µM) | 1 µg/mL (≈ 0.496 µM) | 0.25 µg/mL (≈ 0.124 µM) | ≤ .06 µg/mL | 0.25 µg/mL (≈ 0.124 µM) | 0.25 µg/mL (≈ 0.124 µM) | 0.25 µg/mL (≈ 0.124 µM) | 0.25 µg/mL (≈ 0.124 µM) | 0.125 µg/mL (≈ 0.0619 µM) | MIC S. h. 415 (S. h. 415): 4 µg/mL (≈ 1.98 µM); MIC St. pneumo P1 (St. pneumo P1): ≤ .06 µg/mL; MIC St. pyro C203 (St. pyro C203): ≤ .06 µg/mL; MIC H. influR D/BL+ (H. influR D/BL+): 1 µg/mL (≈ 0.496 µM); Resist. MIC [1]: 0.84 µg/mL; Sens. MIC [2]: 0.25 µg/mL |
| CC(=O)NC1C(OC2c3ccc(c(Cl)c3)Oc3cc4cc(c3OC3OC(CO)C(O)C(O)C3NCc3ccc5ccccc5c3)Oc3ccc(cc3Cl)CC3NC(=O)C(NCc5ccc6ccccc6c5)c5ccc(O)c(c5)Oc5cc(O)cc(c5)C(NC3=O)C(=O)NC4C(=O)NC3C(=O)NC2C(=O)NC(C(=O)O)c2cc(O)cc(OC4OC(CO)C(O)C(O)C4O)c2-c2cc3ccc2O)OC(CO)C(O)C1O (stereo not drawn) [Example 6] | ≤ .06 µg/mL | 0.25 µg/mL (≈ 0.125 µM) | ≤ .06 µg/mL | ≤ .06 µg/mL | ≤ .06 µg/mL | > 64 | 16 (≈ 7.98 µM) | ≤ .06 µg/mL | ≤ .06 µg/mL | ≤ .06 µg/mL | ≤ .06 µg/mL | ≤ .06 µg/mL | ≤ .06 µg/mL | ≤ .06 µg/mL | ≤ .06 µg/mL | ≤ .06 µg/mL | ≤ .06 µg/mL | ≤ .06 µg/mL | ≤ .06 µg/mL | ≤ .06 µg/mL | MIC S. h. 415 (S. h. 415): 4 µg/mL (≈ 1.99 µM); MIC St. pneumo P1 (St. pneumo P1): ≤ .06 µg/mL; MIC St. pyro C203 (St. pyro C203): ≤ .06 µg/mL; MIC H. influR D/BL+ (H. influR D/BL+): 1 µg/mL (≈ 0.499 µM); Resist. MIC [1]: 3.4 µg/mL; Sens. MIC [2]: 0.11 µg/mL |
